Laboratory results taken from patent US8969376B2, “Pyrazolopyrimidine compounds and their use as PDE10 inhibitors” (Mitsubishi Tanabe Pharma Corporation, priority 2010, dated 2015).

These compounds were tested against Bovine PDE10A (bPDE10A) (Bos taurus, UniProt A0A3Q1MHJ4) (assay: Measurement of PDE10 inhibitory activity (PDE assay, radiolabeled nucleotide method), bovine enzyme). Settings: PDE10A of bovine (corpus striatum); substrate 3H-cAMP, final 7 nM; room temperature 90 min.
Type: biochemical
Source text: (§1) (1) Bovine PDE10A (bPDE10A) was isolated and prepared from bovine corpus striatum, according to the methods described in the reference Fujishige et al., Eur. J. Biochem., vol. 266, pp. 1118-1127, 1999. Human PDE10A (hPDE10A) was isolated from COS-7 cells transfected with plasmids coding for human PDE10A2, according to the methods described in the reference Kotera et al., Biochem. Biophys. Res. Commun., vol. 261, pp. 551-557, 1999. The enzyme solutions obtained were used for a PDE assay.
(§2) The PDE assay was performed according to a modified method referred to a report of Kotera et al. (Kotera et al., Biochem. Pharmacol., vol. 60, pp. 1333-1341, 2000), by the radiolabeled nucleotide method.
(§3) Specifically, the measurements of the inhibitory activities were carried out in the following method.
(Method) The test compounds were dissolved in dimethyl sulfoxide (DMSO). 2 μL of the compound solution was added to 96 well plate, and the reaction mixture (20 μL of PDE enzyme solution in 50 mM Tris-HCl, pH 8.0, 40 μL of the assay buffer (50 mM Tris-HCl, pH 8.0, 2 mM MgCl2, 0.07% 2-mercaptoethanol, and 0.825 mg/mL bovine serum albumin), and 20 μL of 1 mg/mL snake venom in 50 mM Tris-HCl, pH8.0) was added to the 96 well plate. […] 50 μL of the eluate together with wash eluate with additional 100 μL methanol was collected in another plate and the radioactivity was measured. […]

Sequence of Bovine PDE10A (bPDE10A) (A0A3Q1MHJ4 1-1068): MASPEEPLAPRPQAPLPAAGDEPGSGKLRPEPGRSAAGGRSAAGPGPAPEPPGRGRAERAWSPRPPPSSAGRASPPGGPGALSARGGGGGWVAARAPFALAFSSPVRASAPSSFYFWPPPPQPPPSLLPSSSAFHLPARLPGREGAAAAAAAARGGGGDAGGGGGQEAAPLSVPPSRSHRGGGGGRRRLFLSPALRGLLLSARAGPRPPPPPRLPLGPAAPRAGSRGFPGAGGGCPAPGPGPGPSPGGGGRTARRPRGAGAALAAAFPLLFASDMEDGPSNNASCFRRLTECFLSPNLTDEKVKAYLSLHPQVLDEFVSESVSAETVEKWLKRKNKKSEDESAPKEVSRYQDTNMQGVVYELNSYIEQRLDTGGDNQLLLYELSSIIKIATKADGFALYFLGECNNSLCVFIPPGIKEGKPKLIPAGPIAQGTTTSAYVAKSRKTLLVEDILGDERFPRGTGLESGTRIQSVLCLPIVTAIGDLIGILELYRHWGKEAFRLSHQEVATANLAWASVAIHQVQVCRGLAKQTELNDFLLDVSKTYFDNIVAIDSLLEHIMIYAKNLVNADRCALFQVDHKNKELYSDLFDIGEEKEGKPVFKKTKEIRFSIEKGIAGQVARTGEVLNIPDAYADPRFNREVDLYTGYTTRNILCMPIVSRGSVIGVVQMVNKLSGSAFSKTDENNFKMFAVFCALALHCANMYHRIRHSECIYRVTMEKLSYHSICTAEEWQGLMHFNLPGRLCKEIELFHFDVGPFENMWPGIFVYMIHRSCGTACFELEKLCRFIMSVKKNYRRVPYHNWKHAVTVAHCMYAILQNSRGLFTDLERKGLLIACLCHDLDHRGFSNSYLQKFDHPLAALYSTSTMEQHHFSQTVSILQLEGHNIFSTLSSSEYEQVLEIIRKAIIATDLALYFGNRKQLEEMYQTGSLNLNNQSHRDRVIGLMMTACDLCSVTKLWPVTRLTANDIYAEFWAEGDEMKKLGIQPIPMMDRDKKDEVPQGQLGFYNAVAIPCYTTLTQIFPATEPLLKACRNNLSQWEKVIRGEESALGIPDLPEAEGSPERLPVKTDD

IC50 [nM] | Compound
0.019 | COCCN(CCOC)c1cc(N2CCCC2)nc2cc(-c3nc4cc(C)ccc4nc3C)nn12 [Example 1.050, 2-(3,7-dimethylquinoxalin-2-yl)-N,N-bis(2-methoxyethyl)-5-pyrrolidin-1-ylpyrazolo[1,5-a]pyrimidin-7-amine]

These compounds were tested against Human PDE10A (hPDE10A) (Homo sapiens (Human), UniProt Q9Y233) (assay: Measurement of PDE10 inhibitory activity (PDE assay, radiolabeled nucleotide method), human enzyme). Settings: PDE10A of human (PDE10A2 expressed in COS-7 cells); substrate 3H-cAMP, final 7 nM; room temperature 90 min.
Sequence of Human PDE10A (hPDE10A) (Q9Y233 267-1055): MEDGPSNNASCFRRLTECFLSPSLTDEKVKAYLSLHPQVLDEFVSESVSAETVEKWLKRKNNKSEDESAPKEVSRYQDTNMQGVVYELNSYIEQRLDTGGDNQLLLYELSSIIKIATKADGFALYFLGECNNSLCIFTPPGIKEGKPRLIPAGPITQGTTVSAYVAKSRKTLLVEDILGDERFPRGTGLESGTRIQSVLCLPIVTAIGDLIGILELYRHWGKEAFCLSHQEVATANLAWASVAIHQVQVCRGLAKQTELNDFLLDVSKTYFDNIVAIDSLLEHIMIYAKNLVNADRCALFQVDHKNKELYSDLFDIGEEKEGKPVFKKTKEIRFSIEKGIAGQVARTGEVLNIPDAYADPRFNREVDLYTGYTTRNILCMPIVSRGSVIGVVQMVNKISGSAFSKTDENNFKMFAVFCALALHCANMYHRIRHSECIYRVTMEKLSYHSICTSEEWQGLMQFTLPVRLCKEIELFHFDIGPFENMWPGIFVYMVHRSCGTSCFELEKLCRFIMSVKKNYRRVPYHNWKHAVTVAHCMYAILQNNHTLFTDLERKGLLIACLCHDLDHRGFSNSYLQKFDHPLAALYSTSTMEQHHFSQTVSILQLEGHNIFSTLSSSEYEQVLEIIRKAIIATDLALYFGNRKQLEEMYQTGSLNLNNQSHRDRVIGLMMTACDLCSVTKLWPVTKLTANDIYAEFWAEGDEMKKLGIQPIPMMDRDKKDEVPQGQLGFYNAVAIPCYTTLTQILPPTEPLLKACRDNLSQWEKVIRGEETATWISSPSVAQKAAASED
Type: biochemical
Source text: as §1, §2, §3
(Method) The test compounds were dissolved in dimethyl sulfoxide (DMSO). 2 μL of the compound solution was added to 96 well plate, and the reaction mixture (20 μL of PDE enzyme solution in 50 mM Tris-HCl, pH 8.0, 40 μL of the assay buffer (50 mM Tris-HCl, pH 8.0, 2 mM MgCl2, 0.07% 2-mercaptoethanol, and 0.825 mg/mL bovine serum albumin), and 20 μL of 1 mg/mL snake venom in 50 mM Tris-HCl, pH8.0) was added to the 96 well plate. The enzyme reaction was started by adding and mixing with substrate solution of 20 μL containing approximate 35 nM ^3H-cAMP in 50 mM Tris-HCl, pH 8.0. The final concentration of cAMP in the reaction mixtures was 7 nM. The reaction mixtures were incubated at room temperature for 90 min. After incubation, the reaction was stopped by adding 100 μL of methanol and resultant solutions were applied to filter plate containing Dowex (1×8 200-400) and centrifuged. 50 μL of the eluate together with wash eluate with additional 100 μL methanol was collected in another plate and the radioactivity was measured.
(2) The compounds in the Examples below were tested for PDE inhibition using the Method described above.

Compound | IC50 [nM]
Cc1nc(C)c(C2CC2)nc1-c1cc2nc(N3CCCC3)cc(NC3CCOCC3)n2n1 [Example 1.190, 2-(6-cyclopropyl-3,5-dimethylpyrazin-2-yl)-5-pyrrolidin-1-yl-N-(tetrahydro-2H-pyran-4-yl)pyrazolo[1,5-a]pyrimidin-7-amine] | 0.69
Cc1nc2c(nc1-c1cc3nc(N4CCCC4)cc(N[C@H]4CC[C@](C)(O)CC4)n3n1)CCCO2 [Example 1.173, trans-1-methyl-4-{[2-(3-methyl-7,8-dihydro-6H-pyrano[2,3-b]pyrazin-2-yl)-5-pyrrolidin-1-ylpyrazolo[1,5-a]pyrimidin-7-yl]amino}cyclohexanol] | 0.27
Cc1nc(C)c(-c2cc3nc(N4CCCC4)cc(NCC(C)(C)O)n3n2)nc1CC(C)C [Example 1.187, 1-{[2-(6-isobutyl-3,5-dimethylpyrazin-2-yl)-5-pyrrolidin-1-ylpyrazolo[1,5-a]pyrimidin-7-yl]amino}-2-methylpropan-2-ol] | 0.6
Cc1nc2c(nc1-c1cc3nc(N4CCCC4)cc(NC4CCOCC4)n3n1)CCCO2 [Example 1.197, 2-(3-methyl-7,8-dihydro-6H-pyrano[2,3-b]pyrazin-2-yl)-5-pyrrolidin-1-yl-N-(tetrahydro-2H-pyran-4-yl)pyrazolo[1,5-a]pyrimidin-7-amine] | 2.5
Cc1nc2ccncc2nc1-c1cc2nc(N3CCCC3)cc(NC3CCOCC3)n2n1 [Example 5.001, 2-(2-methylpyrido[3,4-b]pyrazin-3-yl)-5-pyrrodin-1-yl-N-(tetrahydro-2H-pyran-4-yl)pyrazolo[1,5-a]pyrimidin-7-amine] | 0.15
Cc1nc(C)c(C2CC2)nc1-c1cc2nc(N3CCCC3)cc(NCC(C)(C)O)n2n1 [Example 1.189, 1-{[2-(6-cyclopropyl-3,5-dimethylpyrazin-2-yl)-5-pyrrolidin-1-ylpyrazolo[1,5-a]pyrimidin-7-yl]amino}-2-methylpropan-2-ol] | 0.18
CCCc1cnc(C)c(-c2cc3nc(N4CCCC4)cc(N(C)C4CCOCC4)n3n2)n1 [Example 1.181, N-methyl-2-(3-methyl-6-propylpyrazin-2-yl)-5-pyrrolidin-1-yl-N-(tetrahydro-2H-pyran-4-yl)pyrazolo[1,5-a]pyrimidin-7-amine] | 0.64
Cc1nc2c(nc1-c1cc3nc(N4CCCC4)cc(NCC(C)(C)O)n3n1)CCCO2 [Example 1.198, 2-methyl-1-{[2-(3-methyl-7,8-dihydro-6H-pyrano[2,3-b]pyrazin-2-yl)-5-pyrrolidin-1-ylpyrazolo[1,5-a]pyrimidin-7-yl]amino}propan-2-ol] | 0.82
Cc1nc2cnccc2nc1-c1cc2nc(N3CCCC3)cc(NC3CCOCC3)n2n1 [Example 5.002, 2-(3-methylpyrido[3,4-b]pyrazin-2-yl)-5-pyrrolidin-1-yl-N-(tetrahydro-2H-pyran-4-yl)pyrazolo[1,5-a]pyrimidin-7-amine] | 0.28
Cc1nc2ccc(F)cc2nc1-c1cc2nc(N3CC[C@H](F)C3)cc(N[C@H]3CC[C@@](C)(O)CC3)n2n1 [Example 1.175, cis-4-({2-(7-fluoro-3-methylquinoxalin-2-yl)-5-[(3R)-3-fluoropyrrolidin-1-yl]pyrazolo[1,5-a]pyrimidin-7-yl}amino)-1-methylcyclohexanol] | 0.12
Cc1cn2nccc2nc1-c1cc2nc(N3CCCC3)cc(NCC(C)(C)O)n2n1 [Example 1.184, 2-methyl-1-[(6′-methyl-5-pyrrolidin-1-yl-2,5′-bipyrazolo[1,5-a]pyrimidin-7-yl)amino]propan-2-ol] | 2.5
CO[C@H]1CC[C@H](Nc2cc(N3CCCC3)nc3cc(-c4nc5c(nc4C)OCCC5)nn23)CC1 [Example 1.199, N-(trans-4-methoxycyclohexyl)-2-(3-methyl-7,8-dihydro-6H-pyrano[2,3-b]pyrazin-2-yl)-5-pyrrolidin-1-ylpyrazolo[1,5-a]pyrimidin-7-amine] | 0.89
